# Source: US20220184000A1, “USE OF CANNABIDIOL IN THE TREATMENT OF DRAVET SYNDROME” (priority 2019, published 2022)
# What was measured:
# Format in all cases: in vivo
# [1] = test system: Scn1a^+/− mice; assay: Eight-arm radial arm maze (RAM) test, cognition, Study II; conditions: CBD 100 mg/kg s.c. twice daily
# Protocol: (§1) Here, Scn1a^+/− were randomly divided into two groups and subcutaneously injected with either CBD (100 mg/kg twice daily; n=12) or its vehicle (ethanol:Kolliphor®:0.9% saline=2:1:17; n=29) from P8 onwards until P52 or death (whichever was earlier).
# A radial arm maze (RAM) consisting of eight arms (each arm 60×10 cm; raised at 50 cm above the floor) was used to assess the reference memory (RM) and working memory (WM) of the animals. On four consecutive days, animals were given two 10-minute sessions of habituation to the test apparatus and rules of the test, separated by a 90 min interval. During the first two days of habituation, food rewards (¼ Cheerios®, Nestle) were randomly scattered on the floor of the apparatus covering all arms and food-troughs at the end of each arm. On the 3rd and 4th habituation day, food rewards were placed only in food troughs of four randomly selected arms (fixed for each animal during the habituation and test day). Food was withdrawn 4-6 hours before the trial (both during habituation and test days) to motivate the animals to locate the rewards and thus perform the task. On the test day two trials of 10 min were conducted at 90 min interval and the activity of the animals were video recorded for offline blinded coding after the end of experiment. Entry to a non-baited arm was considered as a reference memory error (RME), whereas re-entry to a previously baited arm from which the food was already taken is considered as a working memory error (WME). The mean WME or RME were calculated from the two test trials.
# In Study II, the data were analysed in GraphPad Prism 6 software. Survival curves of Scn1a^+/− vehicle-treated and Scn1a^+/− CBD-treated group were compared using a Mantel-Cox test. The percentage of animals from the Scn1a^+/− vehicle-treated and Scn1a^+/− CBD-treated groups that survived until the end of the study (P52) were compared by Fisher's exact test. Further, data obtained from the comorbidity assessment were checked for normality by D'Agostino & Pearson omnibus normality test. Data obtained from rotarod, gait, social interaction (active interaction), EPM, sucrose preference, RAM (RME) tests were normally distributed and the differences between the three groups were analysed by one-way ANOVA. If a significant difference was found then Holm-Sidak post-hoc test was conducted among the groups. […] Upon observing a significant difference, the Dunn's post-hoc test was employed to compare the groups. Multiple comparisons were corrected in all cases. Parametric data are presented in scattered dot plot in the figures and are expressed as mean±SEM. Non-parametric data are presented in box plot in the figures and are expressed as median, min to max, and interquartile range (IQR). […]
# [2] = test system: Scn1a^+/− mice; assay: Gait test, Study II; conditions: CBD 100 mg/kg s.c. twice daily
# Protocol: as §1
# Gait test was conducted to assess the cerebellar function of the animals (Patel & Hillard, 2001). In this test, the hind paws of each mouse were marked with a non-toxic ink and the mouse was allowed to walk on a white paper (50×10 cm) placed on the floor of a custom-made plexiglass tunnel (50×10×10 cm). To obtain the left and right stride length, the distance between two ipsilateral paw prints was measured, whereas stride width was calculated from the distance between a footprint and its contralateral stride length at right angle (Wecker et al., 2013). The initial and last footprints were not considered in measurements. All the animals were habituated to the test procedures and the apparatus for 2 days prior to the test. On the day of test, two trials were conducted for each animal to obtain mean stride length (left or right) and width for that animal.
# In Study II, the data were analysed in GraphPad Prism 6 software. Survival curves of Scn1a^+/− vehicle-treated and Scn1a^+/− CBD-treated group were compared using a Mantel-Cox test. The percentage of animals from the Scn1a^+/− vehicle-treated and Scn1a^+/− CBD-treated groups that survived until the end of the study (P52) were compared by Fisher's exact test. Further, data obtained from the comorbidity assessment were checked for normality by D'Agostino & Pearson omnibus normality test. Data obtained from rotarod, gait, social interaction (active interaction), EPM, sucrose preference, RAM (RME) tests were normally distributed and the differences between the three groups were analysed by one-way ANOVA. […] Parametric data are presented in scattered dot plot in the figures and are expressed as mean±SEM. Non-parametric data are presented in box plot in the figures and are expressed as median, min to max, and interquartile range (IQR). […]
# [3] = test system: Scn1a^−/− mice; assay: Survival in Scn1a^−/− mice, Study I (acute model of Dravet syndrome); conditions: CBD-treated Scn1a^−/− mice; 100 mg/kg s.c. twice daily from P8; n=10; vehicle 15.5 days; Mantel-Cox p=0.003; FIG. 1B
# Protocol: (§2) Following genotyping, animals were randomly divided into four groups WT vehicle-treated, WT CBD-treated, Scn1a^−/− vehicle-treated and Scn1a^−/− CBD-treated (n=10/group). They were injected subcutaneously twice daily with either CBD (100 mg/kg) or its vehicle (ethanol:Kolliphor®:0.9% saline=2:1:17) from P8 until P25 or death (whichever was earlier).
# Animal suffering was minimised by employing a validated, welfare scoring system alongside a mathematical model to predict death. In this way, any animal for which the model predicted death could be sacrificed 0.5 day before enduring the maximal severity of the disease.
# Additionally, surface temperature (ST) threshold was employed such that if the sum of the ST scores over the last 1.5 days, was equal to or greater than 3, the animal would be killed by cervical dislocation within 0.5 day.
# In Study I, the welfare parameters were analysed using SPSS 24 (IBM SPSS Statistics®, UK), whilst survival data were analysed using GraphPad Prism 6 software (GraphPad Software, Inc., USA). Data obtained from welfare parameters were compared using a three-way ANOVA to observe the main effects of treatment, genotype and time, and their two-way and three-way interactions. […] All the data are expressed as mean±SEM. […]
# [4] = test system: wild type (WT) mice; assay: Neonatal welfare scoring (TNW) in wild type mice, Study I
# Protocol: 129S-Scn1a^tm1Keammjax heterozygote mice (Jackson Laboratory, USA) were maintained in and bred together to obtain Scn1a^−/− and wild type (WT) animals used for this Study (n=10 per group).
# as §2
# A twice daily welfare check was conducted throughout the entire duration of the study. Drug administration was conducted at 0800 h and followed by welfare checks. Conversely, afternoon welfare checks were conducted from 1600 h and followed by drug administration in order to provide the maximum possible time between doses. […]
# The parameters used for the welfare assessment were: weight, natural activity (NA; 0-3), reflex/response to touch (RT; 0-3), orbital tightening (OT; 0-2), and body condition score (BC; 1-3). A total neonatal welfare score (TNW; range 0-8) was calculated by adding together scores from NA, RT, and […].
# In Study I, the welfare parameters were analysed using SPSS 24 (IBM SPSS Statistics®, UK), whilst survival data were analysed using GraphPad Prism 6 software (GraphPad Software, Inc., USA). […] All the data are expressed as mean±SEM. […]
structure (smiles),measurement,setting,value
"C=C(C)[C@@H]1CCC(C)=C[C@H]1c1c(O)cc(CCCCC)cc1O [CBD, cannabidiol]","reference memory errors (RME), Scn1a^+/− CBD-treated versus WT vehicle-treated",[1]; p=0.65,No difference
same,"working memory errors (WME), Scn1a^+/− CBD-treated versus WT vehicle-treated",[1]; p>0.9999,not differed
same,"reference memory errors (RME), Scn1a^+/− vehicle-treated compared to Scn1a^+/− CBD-treated","[1]; statement describes vehicle group relative to CBD group (n=10), p<0.0001, FIG. 4E",significantly more RME
same,"working memory errors (WME), Scn1a^+/− vehicle-treated compared to Scn1a^+/− CBD-treated","[1]; statement describes vehicle group relative to CBD group, p=0.001, FIG. 4F",significantly more WME
same,stride width between the three groups,"[2]; p=0.17, FIG. 3E",no significant change
same,left stride length between the three groups,"[2]; p=0.44, FIG. 3C",no significant change
same,right stride length between the three groups,"[2]; p=0.44, FIG. 3D",no significant change
same,median survival,[3],16.25 days
same,TNW score versus WT vehicle-treated animals (post hoc),"[4]; P8-P8.5, first day of treatment, CBD 100 mg/kg s.c. twice daily, p<0.05, FIG. 1A",improved TNW score
same,mean total neonatal welfare (TNW) score,"[4]; WT CBD-treated group, CBD 100 mg/kg s.c. twice daily from P8 until P25, n=10, mean±SEM, score range 0-8, vehicle group 0.39±0.04",0.24±0.04
